In US20050064519A1, “Methods of using GST-Omega-2” (Pfizer Inc., priority 2003, published 2005):

Key:
[1] = target: T1, flag-tagged human GST-Omega-2 (Homo sapiens, UniProt Q9H4Y5); test: Competitive binding assay: incorporation of [14C]Compound 2 into GST-Omega-2 in infected SF9 cells; parameters: expressed in transfected cells; host or cells: SF9 insect cells, baculovirus infection (pFASTBAC-flag shuttle vector); settings: 30 min preincubation, then 2 µM [14C]Compound 2 for 60 min, relative to control cultures
T1 sequence (Q9H4Y5 1-242 limits assumed): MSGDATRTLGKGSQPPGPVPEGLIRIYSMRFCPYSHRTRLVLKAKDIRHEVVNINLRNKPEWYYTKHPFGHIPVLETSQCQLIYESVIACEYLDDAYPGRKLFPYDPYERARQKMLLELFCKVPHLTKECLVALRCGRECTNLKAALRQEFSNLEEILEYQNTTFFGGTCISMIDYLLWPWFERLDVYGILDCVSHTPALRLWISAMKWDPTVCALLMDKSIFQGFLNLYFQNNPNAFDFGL
Method: Insect cells (SF9) were infected with a baculovirus construct encoding flag-tagged human GST-Omega-2 (see Example 5) and seeded into individual 10 cm dishes. After 48 hr of infection, media were removed and replaced with fresh medium (6 ml) containing 100, 200 or 400 μM Compound 4, 10 μM Compound 2, or neither compound. The cultures were incubated for 30 min at room temperature after which 2 µM [^14C]Compound 2 was introduced and the cultures were incubated for 60 min at room temperature. The cells then were harvested by centrifugation, washed with PBS to remove unbound radioactivity, and solubilized by detergent extraction. GST-Omega-2 was recovered by immunoprecipitation with anti-Flag M2 antibody, and the resulting immunoprecipitates were fractionated by SDS/PAGE; the dried gel subsequently was analyzed by phosphorimager analysis.

[2] = target: T1, flag-tagged human GST-Omega-2; test: Diarylsulfonylurea (Compound 2) affinity column binding of GST-Omega-2 from HEK293 lysate, Western detection; parameters: expressed in transfected cells; settings: 5 mM in buffer; Western blot of column fractions
Excerpt: Human embryonic kidney (HEK293) cells were transfected with a pcDNA3.1 mammalian expression vector encoding FLAG-tagged human GST-Omega-2. Stable transfectants isolated by growth in the presence of G418 were subcloned and a high expressing colony was identified. Four confluent 10 cm dishes of this cell line were established after which the cells were harvested and then disrupted by nitrogen cavitation. The resulting cell lysate was clarified by centrifugation and the supernatant fraction was recovered and applied to an affinity column (1 ml) composed of 1-(1,2,3,5,6,7-Hexahydro-s-indacen-4-yl)-3-[2-fluoro-5-oxiranylbenzenesulfonyl]-urea (hereinafter referred to as Compound 2 as per U.S. Patent Publication 2002-0034764) attached to Thiolpropyl-Sepharose. Compound 2 is a diarylsulfonylurea that contains an epoxide group which can react to form a covalent linkage with Thiolpropyl-Sepharose. In some cases, the cell extract was applied to the column in a buffer containing 5 mM of a competitive inhibitor, 1-(1,2,3,5,6,7-Hexahydro-s-indacen-4-yl)-3-[4-(1-hydroxy-1-methylethyl)-furan-2-sulfonyl]-urea (hereinafter referred to as Compound 4 as per the '372 application). The column was washed with buffer then eluted with a denaturing detergent, sodium dodecyl sulfate (SDS). Individual 1 ml fractions were collected and aliquots of each were fractionated by SDS/PAGE. […]

[3] = target: T1, flag-tagged human GST-Omega-2; test: Labeling of GST-Omega-2 by [14C]Compound 2 in infected SF9 cells, SDS/PAGE autoradiography; assay type: binding; parameters: expressed in transfected cells; host or cells: SF9 insect cells, baculovirus infection (pFASTBAC-flag shuttle vector); settings: 60 min
Method: (§1) Insect cells (SF9) were infected with a baculovirus construct encoding flag-tagged human GST-Omega-2 (see Example 5) and seeded into individual 10 cm dishes. For comparison, SF9 cells also were infected with a baculovirus construct encoding IKK[…] (I-κB kinase-γ/NF-κB essential modulator (NEMO)). After 48 hr of infection, media were removed and replaced with fresh medium (6 ml) containing from 0.01 to 10 μM of [^14C]Compound 2. Cells were incubated with the radiolabeled diarylsulfonylurea for 60 min (at room temperature) and then collected by centrifugation and washed to remove unbound test agent. Each cell pellet then was suspended in 5 ml of PBS and divided into 2 fractions. Cells within one of these fractions (⅕ of the total) were collected by centrifugation and suspended in 150 µl of SDS/PAGE disaggregation buffer. Cells within the other fraction (⅘ of the total) were collected by centrifugation, solubilized by detergent extraction, and recombinant GST-Omega-2 was recovered by immunoprecipitation with the anti-Flag M2 antibody. Both the total cell lysates and the immunoprecipitates were fractionated by SDS/PAGE and the dried gels were analyzed by autoradiography.

[4] = target: T2, flag-tagged murine GST-Omega-2 (Mus musculus, UniProt Q8K2Q2); test: Labeling of murine GST-Omega-2 by [14C]Compound 2 in infected SF9 cells, SDS/PAGE autoradiography; assay type: binding; settings: 60 min
T2 construct: expressed in transfected cells; host or cells: SF9 insect cells, baculovirus infection (pFASTBAC-flag shuttle vector)
T2 sequence (Q8K2Q2 1-248): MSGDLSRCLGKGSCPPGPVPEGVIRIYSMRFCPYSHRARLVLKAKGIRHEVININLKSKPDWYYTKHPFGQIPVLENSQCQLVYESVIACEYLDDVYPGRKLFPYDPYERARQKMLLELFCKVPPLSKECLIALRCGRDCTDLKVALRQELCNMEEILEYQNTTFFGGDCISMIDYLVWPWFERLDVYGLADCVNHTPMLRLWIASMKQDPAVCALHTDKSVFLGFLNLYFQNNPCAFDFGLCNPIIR
Method: as §1, with “murine” for “human”, “(IkappaB kinase gamma).” for “(I-κB kinase-γ/NF-κB essential modulator (NEMO)).”, “μM” for “μM of”

[5] = 1 µM, room temperature, versus IKK-expressing control cells
[6] = 10 µM (highest test concentration), control and GST-Omega-2-expressing cells

Q: Which “inhibition of incorporation of [14C]Compound 2 into GST-Omega-2” value (shortened to “inhibition”) ([1]; 10 µM unlabeled compound) does the source give for `O=C(Nc1c2c(cc3c1CCC3)CCC2)NS(=O)(=O)c1cc(C2CO2)ccc1F` (centres unmarked) [Compound 2, 1-(1,2,3,5,6,7-Hexahydro-s-indacen-4-yl)-3-[2-fluoro-5-oxiranylbenzenesulfonyl]-urea] here?
A: 90%

Q: How did the “competition with binding of GST-Omega-2 to the diarylsulfonylurea affinity column” value [2] turn out when `CC(C)(O)c1coc(S(=O)(=O)NC(=O)Nc2c3c(cc4c2CCC4)CCC3)c1` [Compound 4, 1-(1,2,3,5,6,7-Hexahydro-s-indacen-4-yl)-3-[4-(1-hydroxy-1-methylethyl)-furan-2-sulfonyl]-urea] was run?
A: competed with the specific binding of GST-Omega-2 to the diarylsulfonylurea affinity column

Q: What about the “inhibition” value ([1]; 100 µM test compound) of the same compound?
A: 63%

Q: What about the “inhibition” value ([1]; 200 µM test compound) of the same compound?
A: 73%

Q: What about the “inhibition” value ([1]; 400 µM test compound) of the same compound?
A: 84%

Q: For `O=C(Nc1c2c(cc3c1CCC3)CCC2)NS(=O)(=O)c1cc(C2CO2)ccc1F` (centres unmarked) [[^14C]Compound 2], which “polypeptides labeled in infected cells” value [3, 5] is on record?
A: only the polypeptide migrating as GST-Omega-2 appeared labeled

Q: What about the “polypeptides labeled in infected cells” value [3, 6] of the same compound?
A: appeared to incorporate into several polypeptides

Q: And the “incorporation of radioactivity into anti-flag immunoprecipitated GST-Omega-2” value ([3]; 0.01 to 10 μM)?
A: dose-dependent increase in the incorporation of radioactivity into the immunoprecipitated protein

Q: And the “polypeptides labeled in infected cells” value [4, 5]?
A: only the polypeptide migrating as GST-Omega-2 appeared labeled

Q: And the “polypeptides labeled in infected cells” value [4, 6]?
A: appeared to incorporate into several polypeptides

Q: And the “incorporation of radioactivity into anti-flag immunoprecipitated GST-Omega-2” value ([4]; 0.01 to 10 μM)?
A: dose-dependent increase in the incorporation of radioactivity into the immunoprecipitated protein
